The values that follow come from paper PMC12993615 (The journal of pain, 2024).

As usually defined, the Ki is a measure of affinity in units of concentration, obtained from inhibition or displacement. High values mean a looser hold on the target, low ones a stronger hold on the target. Usually NOAEL stands for the highest dose or exposure tested at which no adverse effect was seen.

Structures are written as SMILES.

Series [1] relates to painful diabetic neuropathy. As to conditions: cited from earlier work.
Series [2] can be described thus: Terminal plasma levels, OIPN prevention study. It counts as in vivo, male Sprague Dawley rats. An excerpt:
Pain measurements were made on Days 5/6 (when neuropathy has normally developed) and at the end of the study. […] Terminal plasma samples were taken for bioanalysis and proteomics (Somalogic). Brain regions involved in pain processing, that is, prefrontal cortex (PFC), periaqueductal grey (PAG), whole spinal cords (SC), and L4-L6 dorsal root ganglia, were collected for lipidomic and genomic (Genewiz, China) analyses.

In series [3] the test system is CCK1, CCK2, δ (DOP), cathepsin G. Kind of series: Subsequent functional assessment of secondary pharmacology hits. The format is biochemical. An excerpt:
Findings were considered significant if ≥50% inhibition of ligand binding or ≥50% stimulation/inhibition were shown in biochemical assays. Those receptors with values ≥50% were further evaluated for binding and functional half-maximal inhibitory concentrations (IC50).

Series [4] concerns the target FABP7 (Homo sapiens, UniProt O15540). Kind of series: Fluorescence displacement binding assay (ANS probe). The method, then:
Purified FABPs were incubated with 11-(dansylamino)undecanoic acid (DAUDA) (FABP3, FABP5) or 8-anilino-1-naphthalenesulfonic acid (ANS) (FABP7) in the presence or absence of FABP inhibitors (.01–200 μM) in the binding assay buffer. FABP4 binding was assessed using a commercially available kit (Cayman Chemical, Ann Arbor). In all cases, arachidonic acid (10 μM) was included to account for maximal probe displacement. Loss of fluorescence intensity was monitored with an F5 Filtermax Multi-Mode Microplate Reader (Molecular Devices, Sunnyvale) using the following excitation and emission wavelengths (DAUDA: ex./em.= 360/535 nm; ANS: ex./em. = 360/465 nm). Following background subtraction, the fluorescence intensity values were normalised and analyzed via a one-site binding model using the GraphPadPrism (version 9.2). Ki values were determined using the following equation: Ki= IC50/(1 + ([Probe]/Kd).

Series [5] has as its system oxaliplatin-induced mechanical allodynia. Description: 7-day treatment of established OIPN, paw withdrawal threshold. The format is in vivo, male Sprague Dawley rats. As to conditions: 25 mg/kg BID PO 7 days, across Days 7 and 14, P < .05. The method, then:
Male Sprague Dawley rats (150–210 g) were housed in groups of 4 in intra-ventilated Perspex home cages. Humidity, temperature (21 ± 1 °C), and lighting (light-dark cycle of 12:12 hours) were controlled and maintained in the home cages, with food and water available ad libitum. Rats acclimatised to the home cages for at least 1 week. All experiments were carried out according to the Animals (Scientific Procedures) Act, 1986 (U.K. Government Home Office). The study was performed under the Home Office project licence number PP0847012. OIPN was established with a single dose of OXA (10 mg/kg, IP).
Body weight was monitored throughout the study, and terminal plasma and whole brain samples were taken for bioanalysis.
Tactile allodynia (primary outcome measure) was assessed using paw withdrawal threshold (PWT), a measure of pain sensitivity. PWT was evaluated using calibrated von-Frey monofilaments (Touch-Test Sensory Evaluator; Scientific Marketing Associates) applied to the plantar surface of the left hind paw. PWT was determined by increasing and decreasing stimulus intensity and estimated using Dixon’s up-down method.[38],[39]
To acquire baseline readings, pain behaviour was assessed on 3 consecutive days (Days −3, −2, −1). […] NPB expressed as a percentage change from HBL was calculated as follows (HBL-NPB)/HBL*100. […]

A short description of series [6]: in vivo. Also noted: species or system Wistar Han rats. As to conditions: both sexes, Wistar Han, rat, po, 500 mg/kg. The method, then:
Twenty-nine male and 29 female Wistar Han rats were assigned to 7 groups (4 main and 3 toxicokinetic (TK) groups), with 5 rats/sex/group in the main groups and […] in TK groups. Dose formulations were administered twice daily by oral gavage at 100, 300, and 1,000 mg/kg/day (50, 150, and 500 mg/kg/dose) for 14 consecutive days, with a vehicle control group dosed in the same manner. Toxicity was assessed based on clinical signs, daily body weights, food consumption, organ weights, clinical, gross, and anatomic pathology.

Series [7] deals with oxaliplatin-induced mechanical allodynia. Description: Acute dosing in established OIPN, von-Frey paw withdrawal threshold. The format is in vivo, male Sprague Dawley rats. As to conditions: for PWT response versus vehicle: 2 hours. As to the method: OXA (Tocris Bioscience) was dissolved in 5% dextrose (Sigma-Aldrich) and administered intraperitoneally (IP) at a volume of 6 mL/kg. […] AM251 (CB1 antagonist; Tocris Bioscience), AM630 (CB2 antagonist; Tocris Bioscience), GW6471 (PPARα antagonist; Tocris Bioscience), and AMG9810 (TRPV1 antagonist; Tocris Bioscience) were dissolved in saline with 4% dimethyl sulfoxide and delivered IP. Male Sprague Dawley rats (150–210 g) were housed in groups of 4 in intra-ventilated Perspex home cages. Humidity, temperature (21 ± 1 °C), and lighting (light-dark cycle of 12:12 hours) were controlled and maintained in the home cages, with food and water available ad libitum. Rats acclimatised to the home cages for at least 1 week. All experiments were carried out according to the Animals (Scientific Procedures) Act, 1986 (U.K. Government Home Office). The study was performed under the Home Office project licence number PP0847012. OIPN was established with a single dose of OXA (10 mg/kg, IP). […] Tactile allodynia (primary outcome measure) was assessed using paw withdrawal threshold (PWT), a measure of pain sensitivity. PWT was evaluated using calibrated von-Frey monofilaments (Touch-Test Sensory Evaluator; Scientific Marketing Associates) applied to the plantar surface of the left hind paw. PWT was determined by increasing and decreasing stimulus intensity and estimated using Dixon’s up-down method.[38],[39] To acquire baseline readings, pain behaviour was assessed on 3 consecutive days (Days −3, −2, −1). The mean of Day −2 and Day −1 was considered the healthy baseline (HBL) prior to OIPN induction. On Days 5 and 6 after OXA injection, thresholds were reassessed. The mean of Days 5 and 6 was considered the neuropathic baseline (NPB). Animals were then ranked and randomised (based on a Latin square design) to treatment groups according to the percentage change of the mean thresholds observed in the NPB compared to the HBL. NPB expressed as a percentage change from HBL was calculated as follows (HBL-NPB)/HBL*100. All behavioural assessment was done by an experimenter blinded to the identity of the treatment. Separate people were responsible for dosing and assessment/data analysis.

Chain of FABP7 (O15540 whole entry, species assumed): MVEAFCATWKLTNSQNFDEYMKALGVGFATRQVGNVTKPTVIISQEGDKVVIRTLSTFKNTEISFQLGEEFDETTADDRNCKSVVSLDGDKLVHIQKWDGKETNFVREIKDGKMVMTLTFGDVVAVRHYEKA

As for `COc1ccccc1[C@@H]1[C@H](C(=O)O)[C@@H](c2ccccc2OC)[C@H]1C(=O)OC1Cc2ccccc2C1` [ART26.12, (+)–3-Indan-2-yloxycarbonyl-2,4-bis(2-methoxyphenyl)cyclobutanecarboxylic acid], the “effect on established painful diabetic neuropathy” value in series [1] is “treats established painful diabetic neuropathy”. The entries for the “mean plasma levels on Day 15” value in series [2] (10 mg/kg BID) and in series [2] (25 mg/kg BID) were 4.49 ± .99 µM and 7.45 ± 1.58 µM, respectively. Besides, the “functional assessment at the 4 off-targets” value in series [3] is reported as “not physiologically relevant”. In addition, the affinity in series [4] corresponds to a Ki of 19 ± 1.81 µM. Further, the “PWT scores versus vehicle” value in series [5] is recorded as “significantly higher PWT scores than vehicle”. The same molecule had an NOAEL at 14 days in series [6] of 1000 mg/kg/day. For the same molecule, the “PWT response versus vehicle” value in series [7] (100 mg/kg PO co-administered with AM630 (CB2 antagonist) 3 mg/kg IP), in series [7] (100 mg/kg PO co-administered with AMG9810 (TRPV1 antagonist) 3 mg/kg IP) and in series [7] (100 mg/kg PO co-administered with GW6471 (PPARα antagonist) 4 mg/kg IP) was “not significantly different to vehicle” throughout. For the same molecule, in series [7] (100 mg/kg PO co-treated with AM251 (CB1 antagonist) 3 mg/kg IP, P < .05), the “PWT compared to ART26.12 alone” value is listed as “significantly reduced PWT”. Moreover, the “duration of acute attenuation of mechanical allodynia” value in series [7] (established OIPN, acute oral dosing) is given as “up to 8 hours”. Further, the “PWT compared to vehicle” value in series [7] (established OIPN, 50 mg/kg (P < .05), 75 mg/kg (P < .05), 100 mg/kg (P < .001) PO, 30 minutes and 2 hours post-dose) is reported as “significantly increased PWT”. In addition, the “PWT time course after single dose” value in series [7] (established OIPN, 100 mg/kg PO, at 30 minutes, 2, 3, 4 and 8 hours) is recorded as “significantly increased”. Moreover, the “PWT compared to vehicle-alone” value in series [7] (mechanism study, 100 mg/kg PO, 30 minutes or 2 hours, P < .01) is given as “significantly increased PWT”.
